In ChEMBL document CHEMBL3046161, “Synthesis of potential antitubercular and antimicrobial s-triazine-based scaffolds via Suzuki cross-coupling reaction” (2013):
In brackets after ≈: the same amount, converted by molar mass.

Tests used:
Assay type in all cases: functional
[1] = tested on: Proteus vulgaris; test: Antibacterial activity against Proteus vulgaris MTCC 1771 assessed as growth inhibition at 3.12 to 50 ug/mL after 24 hr by agar disk diffusion method
[2] = tested on: Escherichia coli; test: Antibacterial activity against Escherichia coli MTCC 739 assessed as growth inhibition after 24 hr by agar streak dilution method; settings: MTCC 739, 24 h
[3] = tested on: Bacillus cereus; test: Antibacterial activity against Bacillus cereus MTCC 430 assessed as growth inhibition at 3.12 to 50 ug/mL after 24 hr by agar disk diffusion method
[4] = tested on: Mycobacterium tuberculosis; test: Antimycobacterial activity against Mycobacterium tuberculosis H37Rv assessed as growth inhibition after 12 to 28 days by Lowenstein and Jensen agar dilution method
[5] = tested on: Aspergillus clavatus; test: Antifungal activity against Aspergillus clavatus MTCC 1323 assessed as growth inhibition after 48 hr by agar streak dilution method; settings: MTCC 1323, 48 h
[6] = tested on: Aspergillus clavatus; test: Antifungal activity against Aspergillus clavatus MTCC 1323 assessed as growth inhibition at 3.12 to 50 ug/mL after 24 hr by agar disk diffusion method
[7] = tested on: Klebsiella pneumoniae; test: Antibacterial activity against Klebsiella pneumoniae MTCC 109 assessed as growth inhibition at 3.12 to 50 ug/mL after 24 hr by agar disk diffusion method
[8] = tested on: Shigella flexneri; test: Antibacterial activity against Shigella flexneri MTCC 1457 assessed as growth inhibition after 24 hr by agar streak dilution method; settings: MTCC 1457, 24 h
[9] = tested on: Aspergillus niger; test: Antifungal activity against Aspergillus niger MTCC 282 assessed as growth inhibition at 3.12 to 50 ug/mL after 24 hr by agar disk diffusion method
[10] = tested on: Pseudomonas aeruginosa; test: Antibacterial activity against Pseudomonas aeruginosa MTCC 741 assessed as growth inhibition at 3.12 to 50 ug/mL after 24 hr by agar disk diffusion method
[11] = tested on: Aspergillus niger; test: Antifungal activity against Aspergillus niger MTCC 282 assessed as growth inhibition after 48 hr by agar streak dilution method; settings: MTCC 282, 48 h
[12] = tested on: Klebsiella pneumoniae; test: Antibacterial activity against Klebsiella pneumoniae MTCC 109 assessed as growth inhibition after 24 hr by agar streak dilution method; settings: MTCC 109, 24 h
[13] = tested on: Salmonella typhi; test: Antibacterial activity against Salmonella enterica subsp. enterica serovar Typhi MTCC 733 assessed as growth inhibition after 24 hr by agar streak dilution method; settings: MTCC 733, 24 h
[14] = tested on: Aspergillus fumigatus; test: Antifungal activity against Aspergillus fumigatus MTCC 343 assessed as growth inhibition after 48 hr by agar streak dilution method; settings: MTCC 343, 48 h
[15] = tested on: Pseudomonas aeruginosa; test: Antibacterial activity against Pseudomonas aeruginosa MTCC 741 assessed as growth inhibition after 24 hr by agar streak dilution method; settings: MTCC 741, 24 h
[16] = tested on: Bacillus cereus; test: Antibacterial activity against Bacillus cereus MTCC 430 assessed as growth inhibition after 24 hr by agar streak dilution method; settings: MTCC 430, 24 h
[17] = tested on: Candida albicans; test: Antifungal activity against Candida albicans MTCC 183 assessed as growth inhibition at 3.12 to 50 ug/mL after 24 hr by agar disk diffusion method
[18] = tested on: Staphylococcus aureus; test: Antibacterial activity against Staphylococcus aureus MTCC 96 assessed as growth inhibition at 3.12 to 50 ug/mL after 24 hr by agar disk diffusion method
[19] = tested on: Salmonella typhi; test: Antibacterial activity against Salmonella enterica subsp. enterica serovar Typhi MTCC 733 assessed as growth inhibition at 3.12 to 50 ug/mL after 24 hr by agar disk diffusion method
[20] = tested on: Proteus vulgaris; test: Antibacterial activity against Proteus vulgaris MTCC 1771 assessed as growth inhibition after 24 hr by agar streak dilution method; settings: MTCC 1771, 24 h
[21] = tested on: Mycobacterium tuberculosis; test: Antimycobacterial activity against Mycobacterium tuberculosis H37Rv assessed as growth inhibition measured within 10 days by BACTEC MGIT method; settings: 240 h
[22] = tested on: Escherichia coli; test: Antibacterial activity against Escherichia coli MTCC 739 assessed as growth inhibition at 3.12 to 50 ug/mL after 24 hr by agar disk diffusion method
[23] = tested on: Mycobacterium tuberculosis; test: Antimycobacterial activity against Mycobacterium tuberculosis H37Rv assessed as growth inhibition at MIC after 12 to 28 days by Lowenstein and Jensen agar dilution method
[24] = tested on: Shigella flexneri; test: Antibacterial activity against Shigella flexneri MTCC 1457 assessed as growth inhibition at 3.12 to 50 ug/mL after 24 hr by agar disk diffusion method
[25] = tested on: Aspergillus fumigatus; test: Antifungal activity against Aspergillus fumigatus MTCC 343 assessed as growth inhibition at 3.12 to 50 ug/mL after 24 hr by agar disk diffusion method
[26] = tested on: Staphylococcus aureus; test: Antibacterial activity against Staphylococcus aureus MTCC 96 assessed as growth inhibition after 24 hr by agar streak dilution method; settings: MTCC 96, 24 h
[27] = tested on: Candida albicans; test: Antifungal activity against Candida albicans MTCC 183 assessed as growth inhibition after 48 hr by agar streak dilution method; settings: MTCC 183, 48 h

In the case of `CC1CC(C)CN(c2nc(-c3ccc(NCC(=O)Nc4ccc(I)cc4)cc3)nc(N3CC(C)CC(C)C3)n2)C1` (stereo not drawn), the “inhibition zone (IZ)” value [1] is reported as 23 mm, the MIC [2] is reported as 50 µg/mL (≈ 76.5 µM) and the “inhibition zone (IZ)” value [3] is reported as 16 mm. For the same compound, the MIC [4] was 250 µg/mL (≈ 382 µM), the MIC [5] was > 50 µg/mL and the “inhibition zone (IZ)” value [6] was <10 mm. For the same compound, the “inhibition zone (IZ)” value [7] was 23 mm, the MIC [8] was 50 µg/mL (≈ 76.5 µM) and the “inhibition zone (IZ)” value [9] was <10 mm. The “inhibition zone (IZ)” value [10] was 24 mm, the MIC [11] was 50 µg/mL (≈ 76.5 µM) and the MIC [12] was 50 µg/mL (≈ 76.5 µM). It also gave an MIC [13] of 50 µg/mL (≈ 76.5 µM), an MIC [14] of 50 µg/mL (≈ 76.5 µM) and an MIC [15] of 25 µg/mL (≈ 38.2 µM). For the same compound, the MIC [16] was 50 µg/mL (≈ 76.5 µM), the “inhibition zone (IZ)” value [17] was <10 mm and the “inhibition zone (IZ)” value [18] was 17 mm. For the same compound, the “inhibition zone (IZ)” value [19] was 17 mm, the MIC [20] was 25 µg/mL (≈ 38.2 µM) and the MIC [21] was > 6.25 µg/mL. For the same compound, the “inhibition zone (IZ)” value [22] was <10 mm, the “growth inhibition (GI)” value [23] was 95% and the “inhibition zone (IZ)” value [24] was 20 mm. The “inhibition zone (IZ)” value [25] was 16 mm, the MIC [26] was 50 µg/mL (≈ 76.5 µM) and the MIC [27] was > 50 µg/mL.
For `CC1CC(C)CN(c2nc(-c3ccc(NCC(=O)Nc4ccc([N+](=O)[O-])cc4)cc3)nc(N3CC(C)CC(C)C3)n2)C1` (stereo not drawn), the “inhibition zone (IZ)” value [1] was 13 mm, the MIC [2] was 50 µg/mL (≈ 87.3 µM) and the “inhibition zone (IZ)” value [3] was 16 mm. For the same compound, the MIC [4] was 100 µg/mL (≈ 175 µM), the MIC [5] was 50 µg/mL (≈ 87.3 µM) and the “inhibition zone (IZ)” value [6] was 24 mm. The “inhibition zone (IZ)” value [7] was 12 mm, the MIC [8] was 50 µg/mL (≈ 87.3 µM) and the “inhibition zone (IZ)” value [9] was 18 mm. The “inhibition zone (IZ)” value [10] was 20 mm, the MIC [11] was 50 µg/mL (≈ 87.3 µM) and the MIC [12] was 50 µg/mL (≈ 87.3 µM). For the same compound, the MIC [13] was 50 µg/mL (≈ 87.3 µM), the MIC [14] was 50 µg/mL (≈ 87.3 µM) and the MIC [15] was 50 µg/mL (≈ 87.3 µM). The MIC [16] was 50 µg/mL (≈ 87.3 µM), the “inhibition zone (IZ)” value [17] was 13 mm and the “inhibition zone (IZ)” value [18] was 20 mm. For the same compound, the “inhibition zone (IZ)” value [19] was 15 mm, the MIC [20] was 50 µg/mL (≈ 87.3 µM) and the MIC [21] was > 6.25 µg/mL. The “inhibition zone (IZ)” value [22] was 13 mm, the “growth inhibition (GI)” value [23] was 94% and the “inhibition zone (IZ)” value [24] was 17 mm. The “inhibition zone (IZ)” value [25] was 18 mm, the MIC [26] was 12.5 µg/mL (≈ 21.8 µM) and the MIC [27] was 50 µg/mL (≈ 87.3 µM).
With `CC1CC(C)CN(c2nc(-c3ccc(NCC(=O)Nc4ccc(C#N)cc4)cc3)nc(N3CC(C)CC(C)C3)n2)C1` (stereo not drawn) the “inhibition zone (IZ)” value [1] was 19 mm, the MIC [2] was 25 µg/mL (≈ 45.2 µM) and the “inhibition zone (IZ)” value [3] was 19 mm. The MIC [4] was 62.5 µg/mL (≈ 113 µM), the MIC [5] was > 50 µg/mL and the “inhibition zone (IZ)” value [6] was <10 mm. For the same compound, the “inhibition zone (IZ)” value [7] was 28 mm, the MIC [8] was 50 µg/mL (≈ 90.5 µM) and the “inhibition zone (IZ)” value [9] was <10 mm. The “inhibition zone (IZ)” value [10] was 21 mm, the MIC [11] was 50 µg/mL (≈ 90.5 µM) and the MIC [12] was 12.5 µg/mL (≈ 22.6 µM). It also gave an MIC [13] of 50 µg/mL (≈ 90.5 µM), an MIC [14] of 50 µg/mL (≈ 90.5 µM) and an MIC [15] of 50 µg/mL (≈ 90.5 µM). For the same compound, the MIC [16] was 50 µg/mL (≈ 90.5 µM), the “inhibition zone (IZ)” value [17] was <10 mm and the “inhibition zone (IZ)” value [18] was 19 mm. For the same compound, the “inhibition zone (IZ)” value [19] was 20 mm, the MIC [20] was 50 µg/mL (≈ 90.5 µM) and the MIC [21] was > 6.25 µg/mL. For the same compound, the “inhibition zone (IZ)” value [22] was 20 mm, the “growth inhibition (GI)” value [23] was 96% and the “inhibition zone (IZ)” value [24] was 15 mm. For the same compound, the “inhibition zone (IZ)” value [25] was 11 mm, the MIC [26] was 12.5 µg/mL (≈ 22.6 µM) and the MIC [27] was > 50 µg/mL.
With `Cc1ccc(NC(=O)CNc2ccc(-c3nc(N4CC(C)CC(C)C4)nc(N4CC(C)CC(C)C4)n3)cc2)cc1` (stereo not drawn) the “inhibition zone (IZ)” value [1] was 16 mm, the MIC [2] was 50 µg/mL (≈ 92.3 µM) and the “inhibition zone (IZ)” value [3] was 14 mm. The MIC [4] was 250 µg/mL (≈ 461 µM), the MIC [5] was > 50 µg/mL and the “inhibition zone (IZ)” value [6] was <10 mm. For the same compound, the “inhibition zone (IZ)” value [7] was <10 mm, the MIC [8] was 50 µg/mL (≈ 92.3 µM) and the “inhibition zone (IZ)” value [9] was <10 mm. The “inhibition zone (IZ)” value [10] was 17 mm, the MIC [11] was 50 µg/mL (≈ 92.3 µM) and the MIC [12] was 50 µg/mL (≈ 92.3 µM). For the same compound, the MIC [13] was 50 µg/mL (≈ 92.3 µM), the MIC [14] was > 50 µg/mL and the MIC [15] was 50 µg/mL (≈ 92.3 µM). For the same compound, the MIC [16] was 50 µg/mL (≈ 92.3 µM), the “inhibition zone (IZ)” value [17] was 11 mm and the “inhibition zone (IZ)” value [18] was <10 mm. The “inhibition zone (IZ)” value [19] was 18 mm, the MIC [20] was 50 µg/mL (≈ 92.3 µM) and the MIC [21] was > 6.25 µg/mL. For the same compound, the “inhibition zone (IZ)” value [22] was 13 mm, the “growth inhibition (GI)” value [23] was 95% and the “inhibition zone (IZ)” value [24] was 11 mm. The “inhibition zone (IZ)” value [25] was <10 mm, the MIC [26] was 50 µg/mL (≈ 92.3 µM) and the MIC [27] was 50 µg/mL (≈ 92.3 µM).
